Entries after “also recorded” stand apart in the source; their conditions may differ.
Experiments:
Type in all cases: in vivo, rat
[1] = tested on: monocrotaline-exposed rats; test: Right heart catheterization and right ventricular weight (RVSP, Fulton index) in monocrotaline-exposed rats; conditions: for hemodynamic and histologic indices of PH: BAPN or verteporfin alone; for PAH severity as quantified by RVSP: daily BAPN or daily i.p. verteporfin 25 mg/kg; for right ventricular remodeling (Fulton index, RV/LV+S) / right ventricular systolic pressure (RVSP): daily i.p. 10 mg/kg, C968 from day 2, CB839 from day 7
Experimental: Monocrotaline-treated rats: As we previously described (7, 8), male Sprague-Dawley rats (10-14 week old) were injected with 60 mg/kg monocrotaline at time 0; at 0-4 weeks post-exposure, right heart catheterization was performed followed by harvest of lung tissue for RNA extraction or paraffin embedding, as described below (section: Tissue harvest).
After physiological measurements by direct right ventricular puncture, the pulmonary vessels were gently flushed with 1 cc of saline to remove the majority of blood cells, prior to harvesting cardiopulmonary tissue. The heart was removed, followed by dissection and weighing of the right ventricle (RV) and of the left ventricle+septum (LV+S). Organs were then harvested for histological preparation or flash frozen in liquid N2 for subsequent homogenization and extraction of RNA and/or protein. To further process lung tissue specifically, prior to excision, lungs were flushed with PBS at constant low pressure (approximately 10 mmHg) via right ventricular cannulation, followed by tracheal inflation of the left lung with 10% neutral-buffered formalin (Sigma-Aldrich) at a pressure of approximately 20 cm H2O. After excision and 16 hours of fixation in 10% neutral-buffered formalin at 25° C., lung tissues were paraffin embedded via an ethanol-xylene dehydration series, before being sliced into 5 μm sections (Hypercenter XP System and Embedding Center, Shandon).
(§1) To induce PH, male Sprague-Dawley rats (10-14 week old) were injected intraperitoneally with 60 mg/kg monocrotaline (Sigma-Aldrich). After two days, rats underwent intraperitoneal injection daily with 25 mg/kg of verteporfin (Active Biochemicals Company, Ltd) solubilized in 5% dimethyl sulfoxide (DMSO, Sigma-Aldrich). Two days after the last injection on day 21 post-monocrotaline injection, right heart catheterization was performed followed by harvest of lung tissue and CD31+ cells for RNA or protein extraction, paraffin embedding, or cryopreservation with OCT (Sigma-Aldrich), as we described (2).
(§2) To induce PH, male Sprague-Dawley rats (10-14 week old) were injected intraperitoneally with 60 mg/kg monocrotaline (Sigma-Aldrich). After two days, serial intraperitoneal injections were given daily of C968 (10 mg/kg, Sigma-Aldrich), and after seven days post-monocrotaline injection, serial intraperitoneal injections were given daily of CB839 (10 mg/kg, Selleck Chemicals). Two days after the last injection on day 21 post-monocrotaline injection, right heart catheterization was performed followed by harvest of lung tissue and CD31+ cells for RNA or protein extraction, paraffin embedding, or cryopreservation with OCT (Sigma-Aldrich), as we described (2).
as §2, with “Finally, to investigate whether glutaminolysis itself is essential for promoting pulmonary vascular proliferation in PH, two separate pharmacologic inhibitors of GLS1 (C968 and CB-839) were administered in monocrotaline-exposed rats using either a disease prevention (FIG. 5A) or disease reversal (FIG. 5B) dosing protocol. To” for “To”, “C968 or CB-839” for “C968”, “C968 or CB-839” for “CB839”, “as” for “as we”, “previously (Bertero T, et al. Cell Reports. 2015; 13(5):1016-32).” for “(2).”

[2] = tested on: monocrotaline-exposed rats; test: Atomic force microscopy of pulmonary arteriolar stiffness in monocrotaline-exposed rats
Experimental: Rat lungs were inflated with 0.025 g of OCT by g of body weight, frozen on liquid nitrogen vapor and store at −80° C. Rat lung slices (10 μm thickness) were cut out from their glass slide and the fragment of glass containing the sample was glued on the bottom of a 50 mm dish (Willco Glass Bottom Dish). Before measurements the sample was first rinsed and after covered with 4 ml of PBS 1×. The mechanical properties of the samples were studied using a BioScope Catalyst atomic force microscope (Bruker) coupled with and optical microscope (Leica DMI6000B) that enables, by phase contrast, to pinpoint the areas of interest. For each sample, from five to a maximum of 9 vessels (<100 μm diameter) were analyzed using the “Point and Shoot” method, collecting from 35 to 80 force-distance curves at just as many discrete points. The experiments of microindentation were performed in PBS using a probe with a Borosilicate Glass spherical tip (5 μm of diameter) and a cantilever with a nominal spring constant of 0.06 N/m (Novascan). Indentations were carried out using a velocity of 2 μm/s, in relative trigger mode and by setting the trigger threshold to 2 nN. The apparent Young's modulus was calculated using the NanoScope Analysis 1.50 software (Bruker), fitting the force curves to the Hertz spherical indentation model and using a Poisson's ratio of 0.4. To avoid large indentation, a minimum and a maximum Force Fit Boundary of 5% and 25% respectively of the whole force curve was taken into account for the fit.

[3] = Left ventricular function and systemic blood pressure in treated monocrotaline-exposed rats; conditions: for adverse effects on left ventricular cardiac function: daily BAPN or daily i.p. verteporfin 25 mg/kg
[4] = tested on: monocrotaline-exposed rats; test: Histology and immunofluorescence of lung sections of monocrotaline-exposed rats; conditions: for CD31/PCNA and α-SMA/PCNA double-positive cells (vascular endothelial and smooth muscle proliferation) / GLS1 vascular intensity / YAP1+ cells / vessel thickness and muscularization (vascular remodeling): daily BAPN or daily i.p. verteporfin 25 mg/kg; for pulmonary arteriolar muscularization / pulmonary arteriolar remodeling / Ki67/PCNA positive cells in CD31/vWF+ endothelial compartment / Ki67/PCNA positive cells in α-SMA+ medial (smooth muscle) compartment: daily i.p. 10 mg/kg; for pulmonary arteriolar muscularization / pulmonary arteriolar remodeling: C968 from day 2, CB839 from day 7
Experimental: Lung sections (5 μm) were deparaffinized and high temperature antigen retrieval was performed, followed by blocking in TBS/BSA 5%, 10% donkey serum and exposure to primary antibody and biotinylated secondary antibody (Vectastain ABC kit, Vector Labs) for immunohistochemistry or Alexa 488, 568 and 647-conjugated secondary antibodies (Thermo Fisher Scientific) for immunofluorescence. A primary antibody against YAP1 (#4912; 1/200 or sc101199; 1/50) were obtained from Cell Signaling and Santa Cruz Biotechnology respectively. Primary antibodies against, GLS1 (ab156876; 1/100), PC (ab115579; 1/100), LDHA (ab47010; 1/200) and α-SMA (ab32575; 1/1000) were purchased from Abcam. A primary antibody against CD31 (sc-1506; 1/100), was purchased from Santa Cruz Biotechnology. A primary antibody against PCNA (13-3900, 1/100) was purchased from Thermo Fisher Scientific. In most cases, color development was achieved by adding streptavidin-biotinylated alkaline phosphatase complex (Vector Labs) followed by Vector Red alkaline phosphatase substrate solution (Vector Labs). Levamisole was added to block endogenous alkaline phosphatase activity (Vector Labs). Pictures were obtained using an Olympus Bx51 microscope or ZEISS LSM Exciter confocal microscope. Small pulmonary vessels (<100 µm diameter) present in a given tissue section (>10 vessels/section) that were not associated with bronchial airways were selected for analysis (N>5 animals/group). Intensity of staining was quantified using ImageJ software (NIH). Degree of pulmonary arteriolar muscularization was assessed in paraffin-embedded lung sections stained for α-SMA by calculation of the proportion of fully and partially muscularized peripheral (<100 μm diameter) pulmonary arterioles to total peripheral pulmonary arterioles, as previously described (12). All measurements were performed blinded to condition.
as §1, §2

[5] = daily BAPN or daily i.p. verteporfin 25 mg/kg
[6] = daily i.p. 10 mg/kg C968 or CB-839, data not shown
[7] = C968 from day 2, CB839 from day 7, 10 mg/kg
[8] = C968 from day 2, CB839 from day 7, listed as CB-839, 10 mg/kg

SMILES | hemodynamic and histologic indices of PH [1] | PAH severity as quantified by RVSP [1] | pulmonary arteriolar (<100 μm diameter) stiffness, atomic force microscopy [2, 5] | adverse effects on left ventricular cardiac function ([3]; data not shown) | CD31/PCNA and α-SMA/PCNA double-positive cells (vascular endothelial and smooth muscle proliferation) [4] | GLS1 vascular intensity [4] | YAP1+ cells [4] | vessel thickness and muscularization (vascular remodeling) [4] | right ventricular remodeling (Fulton index, RV/LV+S) [1] | right ventricular systolic pressure (RVSP) [1] | adverse effects on left ventricular function [3, 6] | adverse effects on systemic blood pressure [3, 6] | pulmonary arteriolar muscularization [4] | pulmonary arteriolar remodeling [4] | Ki67/PCNA positive cells in CD31/vWF+ endothelial compartment [4, 7] | Ki67/PCNA positive cells in α-SMA+ medial (smooth muscle) compartment [4, 7] | further results
N#CCCN [BAPN, β-aminoproprionitrile] | improvement | in a lower extent BAPN ameliorated | decreased | without adverse effects | decreased | decreased | decreased | decreased; also recorded: ameliorated | – | – | – | – | – | – | – | – | –
CN(C)c1ccc(C2Nc3ccc4ccccc4c3C3=C2C(=O)CC(C)(C)C3)cc1Br (centres unmarked) [C968, 5-(3-Bromo-4-(dimethylamino)phenyl)-2,2-dimethyl-2,3,5,6-tetrahydrobenzo[a]phenanthridin-4(1H)-one] | – | – | – | – | – | – | – | – | significantly decreased | significantly decreased | without adverse effects | without adverse effects | significantly decreased | significantly decreased | reduced; also recorded: decreased | reduced; also recorded: decreased | PAH severity, as quantified by vascular remodeling, arteriolar muscularization, RVSP and right ventricular hypertrophy ([1]; prevention experiment (C968) or reversal study): ameliorated
O=C(Cc1cccc(OC(F)(F)F)c1)Nc1ccc(CCCCc2nnc(NC(=O)Cc3ccccn3)s2)nn1 [CB839] | – | – | – | – | – | – | – | – | significantly decreased | significantly decreased | without adverse effects | without adverse effects | significantly decreased | significantly decreased | reduced | reduced | pulmonary arteriolar (<100 μm diameter) stiffness, atomic force microscopy ([2]; daily CB839 vs vehicle): decreased; Ki67/PCNA positive cells in CD31/vWF+ endothelial compartment [4, 8]: decreased; Ki67/PCNA positive cells in α-SMA+ medial (smooth muscle) compartment [4, 8]: decreased
C=Cc1c(C)c2cc3nc(cc4[nH]c(cc5nc(cc1[nH]2)C(C)=C5CCC(=O)O)c(CCC(=O)OC)c4C)[C@@]1(C)C3=CC=C(C(=O)OC)[C@H]1C(=O)OC [Verteporfin, 3-[(23S,24R)-14-ethenyl-5-(3-methoxy-3-oxopropyl)-22,23-bis(methoxycarbonyl)-4,10,15,24-tetramethyl-25,26,27,28-tetraazahexacyclo[16.6.1.1^3,6.1^8,11.1^13,16.0^19,24]octacosa-1,3,5,7,9,11(27),12,14,16,18(25),19,21-dodecaen-9-yl]propanoic acid] | robust improvement | ameliorated | decreased | without adverse effects | decreased | decreased | decreased | decreased | – | – | – | – | – | – | – | – | PAH severity as quantified by RVSP ([1]; listed as verteporfin): reductions; right ventricular remodelling (Fulton index) ([1]; daily i.p. verteporfin 25 mg/kg): reductions; adverse effects on systemic blood pressure ([3]; daily i.p. verteporfin 25 mg/kg, data not shown): without adverse effects; CD31/PCNA and α-SMA/PCNA double-positive cells (vascular endothelial and smooth muscle proliferation) ([4]; listed as verteporfin): improved; vessel thickness and muscularization (vascular remodeling) ([4]; listed as verteporfin): reductions
